Reference: ChEMBL document CHEMBL1149799, “Bioactive peroxides as potential therapeutic agents” (Eur J Med Chem, 2008)
Converted amounts (≈) assume the structure as drawn.

Assays:
NCI-H460 = assay: Cytotoxicity against human NCI-H460 cells; format: functional, cell-based
DU-145 = assay: Cytotoxicity against human DU145 cells; format: functional, cell-based
P388 = assay: Cytotoxicity against mouse P388 cells; format: functional, cell-based; conditions: Mus musculus, P388; read-out: ED50 (the source's name)
SF-268 = assay: Cytotoxicity against human SF268 cells; format: functional, cell-based
MCF7 = assay: Cytotoxicity against human MCF7 cells; format: functional, cell-based
KM-20L2 = assay: Cytotoxicity against human KM20L2 cells; format: functional
BXPC-3 = assay: Cytotoxicity against human BXPC3 cells; format: functional
[1] = Cytotoxicity against human MAXF642NL cells; format: functional, cell-based
[2] = Cytotoxicity against human LXF529L cells; format: functional, cell-based; conditions: LXF 529L
[3] = Cytotoxicity against human GXF251L cells; format: functional, cell-based; conditions: GXF 251L
[4] = Cytotoxicity against human MAXF401NL cells; format: functional, cell-based; conditions: MAXF 401NL
[5] = Cytotoxicity against human UXF1138L cells; format: functional, cell-based; conditions: UXF 1138L
[6] = Cytotoxicity against human RXF486L cells; format: functional, cell-based; conditions: RXF 486L
U-251 = assay: Cytotoxicity against human U251 cells; format: functional, cell-based
[7] = Cytotoxicity against human MCF7/ADR-RES cells; format: functional; conditions: NCI/ADR-RES
HCC 2998 = assay: Cytotoxicity against human HCC2998 cells; format: functional, cell-based
COLO 205 = assay: Cytotoxicity against human COLO205 cells
SK-OV-3 = assay: Cytotoxicity against human SK-OV-3 cells; format: functional, cell-based
HCT-116 = assay: Cytotoxicity against human HCT116 cells; format: functional, cell-based
[8] = Cytotoxicity against human CCRF-GEM cells; format: functional
HCT-15 = assay: Cytotoxicity against human HCT15 cells; format: functional, cell-based
[9] = Cytotoxicity against human RPMI8266 cells; format: functional
NCI-H23 = assay: Cytotoxicity against human NCI-H23 cells; format: functional, cell-based
EKVX = assay: Cytotoxicity against human EKVX cells; format: functional
UO-31 = assay: Cytotoxicity against human UO31 cells; format: functional
IGROV-1 = assay: Cytotoxicity against human IGROV1 cells; format: functional
SK-MEL-5 = assay: Cytotoxicity against human SK-MEL-5 cells; format: functional
UACC-62 = assay: Cytotoxicity against human UACC62 cells; format: functional
PC-3 = assay: Cytotoxicity against human PC3 cells; format: functional, cell-based; conditions: Homo sapiens, PC-3
NCI-H322M = assay: Cytotoxicity against human NCI-H322M cells; format: functional
MDA-N = assay: Cytotoxicity against human MDA-N cells; format: functional
KM12 = assay: Cytotoxicity against human KM12 cells; format: functional, cell-based
CAKI-1 = assay: Cytotoxicity against human CAKI1 cells; format: functional
HT-29 = assay: Cytotoxicity against human HT29 cells; format: functional
UACC-257 = assay: Cytotoxicity against human UACC257 cells; format: functional
SK-MEL-2 = assay: Cytotoxicity against human SK-MEL-2 cells; format: functional
A498 = assay: Cytotoxicity against human A498 cells; format: functional
LOX IMVI = assay: Cytotoxicity against human LOXI MVI cells; format: functional, cell-based
OVCAR-5 = assay: Cytotoxicity against human OVCAR5 cells; format: functional, cell-based
SN12C = assay: Cytotoxicity against human SN12C cells; format: functional
HOP-62 = assay: Cytotoxicity against human HOP62 cells; format: functional
SW-620 = assay: Cytotoxicity against human SW620 cells; format: functional
T47D = assay: Cytotoxicity against human T47D cells; format: functional
[10] = Cytotoxicity against human CFUGM; format: functional; conditions: CFU-GM
SNB-19 = assay: Cytotoxicity against human SNB19 cells; format: functional
A549 = assay: Cytotoxicity against human A549 cells; format: functional, cell-based; conditions: Homo sapiens, A549
OVCAR-4 = assay: Cytotoxicity against human OVCAR4 cells; format: functional, cell-based
[11] = Cytotoxicity against human HB60 cells; format: functional
[12] = Cytotoxicity against mouse Ehrlich Ascites carcinoma by […] assay; format: functional
TK-10 = assay: Cytotoxicity against human TK10 cells; format: functional
HOP-92 = assay: Cytotoxicity against human HOP92 cells; format: functional
MOLT-4 = assay: Cytotoxicity against human MOLT4 cells
BT-549 = assay: Cytotoxicity against human BT-549 cells; format: functional
[13] = Cytotoxicity against human RES MDA-MB-231/ATCC cells; format: functional
SK-MEL-28 = assay: Cytotoxicity against human SK-MEL-28 cells; format: functional
ACHN = assay: Cytotoxicity against human ACHN cells; format: functional, cell-based
786-0 = assay: Cytotoxicity against human renal 7860 cells by soft agar assay; format: functional
[14] = Cytotoxicity against human K652 cells; format: functional
OVCAR-3 = assay: Cytotoxicity against human OVCAR-3 cells; format: functional, cell-based
[15] = Cytotoxicity against human P833 cells; format: functional, cell-based

In the case of `CC/C(=C\[C@@]1(CC)C[C@H](CC)[C@H](CC(=O)OC)OO1)[C@H]1O[C@H]1CC` [PLAKORSTATIN 1], the GI50 (NCI-H460) is reported as greater than 10, the GI50 (DU-145) is reported as greater than 10 and the EC50 (P388) is reported as 1.1 µg/mL (≈ 3.23 µM). For the same compound, the GI50 (SF-268) was 1.8, the GI50 (MCF7) was greater than 10 and the GI50 (KM-20L2) was greater than 10. For the same compound, the GI50 (BXPC-3) was greater than 10.

`CCCCC[C@@]1(CC)C=C(CC)[C@@H](CC(=O)OC)OO1` showed an IC50 [1] greater than 10 µg/mL, an IC50 [2] greater than 10 µg/mL and an IC50 [3] greater than 10 µg/mL. For the same compound, the IC50 [4] was greater than 10 µg/mL, the IC50 [5] was greater than 10 µg/mL and the IC50 [6] was greater than 10 µg/mL.

For `C[C@H]1[C@H](O[C@H]2O[C@@H]3O[C@]4(C)CC[C@H]5[C@H](C)CC[C@@H]([C@H]2C)[C@@]35OO4)O[C@@H]2O[C@]3(C)CC[C@H]4[C@H](C)CC[C@@H]1[C@@]24OO3`, the GI50 (U-251) was greater than 25000 nM, the GI50 [7] was 1.45 µg/mL (≈ 2.63 µM) and the GI50 (HCC 2998) was greater than 25000 nM. For the same compound, the GI50 (COLO 205) was 1170 nM, the GI50 (SK-OV-3) was greater than 25 µg/mL and the GI50 (HCT-116) was 710 nM. It also gave a GI50 [8] of 7510 nM, a GI50 (HCT-15) of 740 nM and a GI50 [9] of 660 nM. The GI50 (NCI-H23) was 1150 nM, the GI50 (EKVX) was 2160 nM and the GI50 (UO-31) was 1.7 µg/mL (≈ 3.09 µM). It also gave a GI50 (IGROV-1) greater than 25 µg/mL, a GI50 (SK-MEL-5) greater than 3.6 µg/mL and a GI50 (NCI-H460; Homo sapiens, NCI-H460, read-out: GI50) greater than 25000 nM. For the same compound, the GI50 (UACC-62) was 2 µg/mL (≈ 3.63 µM), the GI50 (PC-3) was 0.19 µg/mL (≈ 0.345 µM) and the GI50 (DU-145; Homo sapiens, DU-145, read-out: GI50) was greater than 25 µg/mL. It also gave a GI50 (NCI-H322M) greater than 25000 nM, a GI50 (MDA-N) of 3.68 µg/mL (≈ 6.68 µM) and a GI50 (KM12) of 880 nM. For the same compound, the GI50 (CAKI-1) was greater than 25 µg/mL, the GI50 (HT-29) was 1320 nM and the GI50 (UACC-257) was greater than 25 µg/mL. For the same compound, the GI50 (SK-MEL-2) was 16.9 µg/mL (≈ 30.7 µM), the GI50 (A498) was greater than 25 µg/mL and the GI50 (LOX IMVI) was 1 µg/mL (≈ 1.82 µM). It also gave a GI50 (OVCAR-5) greater than 25 µg/mL, a GI50 (SN12C) greater than 16.8 µg/mL and a GI50 (HOP-62) greater than 25000 nM. It also gave a GI50 (SW-620) of 1160 nM, a GI50 (T47D) of 1.2 µg/mL (≈ 2.18 µM) and an IC50 [10] of 52500 nM. The GI50 (SNB-19) was greater than 25000 nM, the GI50 (A549) was 18700 nM and the GI50 (OVCAR-4) was 8.6 µg/mL (≈ 15.6 µM). For the same compound, the GI50 [11] was 610 nM, the GI50 (MCF7; Homo sapiens, MCF7, read-out: GI50) was 1.51 µg/mL (≈ 2.74 µM) and the IC50 [12] was 31200 nM. The GI50 (TK-10) was 1.7 µg/mL (≈ 3.09 µM), the GI50 (HOP-92) was 3660 nM and the GI50 (MOLT-4) was 2370 nM. It also gave a GI50 (BT-549) of 1.3 µg/mL (≈ 2.36 µM), a GI50 [13] greater than 25 µg/mL and a GI50 (SK-MEL-28) greater than 25 µg/mL. It also gave a GI50 (ACHN) of 3.5 µg/mL (≈ 6.36 µM), a GI50 (786-0) of 22 µg/mL (≈ 39.9 µM) and a GI50 [14] of 1040 nM. For the same compound, the GI50 (OVCAR-3) was 8.2 µg/mL (≈ 14.9 µM).

`CCCC[C@H](CC)C[C@]1(CC)C=C(CC)[C@H](CC(=O)O)OO1` [HATERUMADIOXIN B] showed an IC50 [15] of 0.0055 µg/mL (≈ 0.0176 µM).
